Data on 21 compounds can be found in patent US20100286145A1, “ISOPHTHALAMIDE DERIVATIVES INHIBITING BETA-SECRETASE ACTIVITY” (CoMentis, Inc., priority 2007, published 2010).

Bounds are passed on as bounds.

In assay [1] the test system is Aβ production in Chinese hamster ovary cells that over-express human APP695 with the London and Swedish mutations. Nature of the assay: Cellular Aβ IC50 determination (Aβ40 sandwich ELISA). Format: cell-based. To be noted: Cricetulus griseus; cellular Aβ production; read-out: IC50. The procedure, abridged: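 Aβ40 in media quantified by sandwich ELISA, normalized to control incubations and fitted with a 4-parameter IC50 model. Compounds dosed to a final concentration near 4 μM (0.4% DMSO) on CHO cells expressing human APP695 (London and Swedish mutants) seeded at 10% confluency.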

The target in a further assay is memapsin 2 (Homo sapiens, UniProt P56817). Nature of the assay: Inhibition of memapsin 2 beta-secretase activity (fluorogenic substrate FS-2). Format: biochemical. To be noted: memapsin 2, pH 4, 37° C., 20 minutes pre-incubation; read-out: M2Ki. In short, it runs like this:
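Kinetic fluorogenic assay: hydrolysis of the MCA/DNP-labelled APP Swedish-variant peptide FS-2 monitored as fluorescence rise at 37° C, pH 4, after 20 min enzyme–compound preincubation. Relative rates fitted with a tight-binding inhibitor model.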

memapsin 2, sequence (P56817 46-501): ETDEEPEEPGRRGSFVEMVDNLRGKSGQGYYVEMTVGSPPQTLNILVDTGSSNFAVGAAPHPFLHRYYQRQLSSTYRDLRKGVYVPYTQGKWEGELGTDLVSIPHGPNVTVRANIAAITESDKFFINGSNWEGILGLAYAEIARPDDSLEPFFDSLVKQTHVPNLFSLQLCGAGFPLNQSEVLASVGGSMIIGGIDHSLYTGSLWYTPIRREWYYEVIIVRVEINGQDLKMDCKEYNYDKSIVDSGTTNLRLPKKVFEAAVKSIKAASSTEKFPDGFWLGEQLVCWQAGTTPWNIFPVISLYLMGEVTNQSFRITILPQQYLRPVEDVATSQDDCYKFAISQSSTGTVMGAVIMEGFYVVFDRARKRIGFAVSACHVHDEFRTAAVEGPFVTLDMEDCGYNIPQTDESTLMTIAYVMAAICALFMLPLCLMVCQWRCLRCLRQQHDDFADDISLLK

With `COCc1cc(C(=O)N[C@@H](Cc2ccccc2)[C@H](O)CNCc2cccc(OC)c2)cc(C(=O)N(C)Cc2nc(C)cs2)c1` [Compound 122, N1-((2S,3R)-3-hydroxy-4-(3-methoxybenzylamino)-1-phenylbutan-2-yl)-5-(methoxymethyl)-N3-methyl-N3-((4-methylthiazol-2-yl)methyl)isophthalamide], the IC50 in assay [1] was less than 1 µM. The Ki on memapsin 2 is less than 0.3 µM.
Take `CC(=O)c1cccc(CNC[C@@H](O)[C@H](Cc2ccccc2)NC(=O)c2cccc(C(=O)N(C)Cc3nc(C)cs3)c2)c1` [Compound 124, N1-((2S,3R)-4-(3-acetylbenzylamino)-3-hydroxy-1-phenylbutan-2-yl)-N3-methyl-N3-((4-methylthiazol-2-yl)methyl)isophthalamide]: in assay [1], the IC50 is less than 1 µM. The Ki on memapsin 2 was less than 0.3 µM.
`Cc1csc(CN(C)C(=O)c2cccc(C(=O)N[C@@H](Cc3ccccc3)[C@H](O)CNCc3cc(O)cc(C(C)C)c3)c2)n1` [Compound 125, N1-((2S,3R)-3-hydroxy-4-(3-hydroxy-5-isopropylbenzylamino)-1-phenylbutan-2-yl)-N3-methyl-N3-((4-methylthiazol-2-yl)methyl)isophthalamide]: the concentration for half-maximal inhibition (IC50) in assay [1] is less than 1 µM. Also, at memapsin 2, the Ki is less than 0.3 µM.
Regarding `CC(=O)c1cccc(CNC[C@@H](O)[C@H](Cc2ccccc2)NC(=O)c2cc(C(=O)N[C@H](C)c3ccccc3)cc(N(C)S(C)(=O)=O)c2)c1` [Compound 126, N1-((2S,3R)-4-(3-acetylbenzylamino)-3-hydroxy-1-phenylbutan-2-yl)-5-(N-methylmethylsulfonamido)-N3-((R)-1-phenylethyl)isophthalamide], the half-maximal inhibitory concentration (IC50) in assay [1] is less than 1 µM. Further, the Ki on memapsin 2 was less than 0.3 µM.
As to `Cc1csc(CN(C)C(=O)c2cccc(C(=O)N[C@@H](Cc3ccccc3)[C@H](O)CNCc3cccc(N(C)C)c3)c2)n1` [Compound 129, N1-((2S,3R)-4-(3-(dimethylamino)benzylamino)-3-hydroxy-1-phenylbutan-2-yl)-N3-methyl-N3-((4-methylthiazol-2-yl)methyl)isophthalamide], the concentration for half-maximal inhibition (IC50) in assay [1] is less than 1 µM. Also, the Ki on memapsin 2 is less than 0.3 µM.
In the case of `Cc1csc(CN(C)C(=O)c2cccc(C(=O)N[C@@H](Cc3ccccc3)[C@H](O)CNCc3cc(C(C)C)cc(N(C)C(=O)OCc4ccccc4)c3)c2)n1` [Compound 130, benzyl 3-(((2R,3S)-2-hydroxy-3-(3-(methyl((4-methylthiazol-2-yl)methyl)carbamoyl)benzamido)-4-phenylbutylamino)methyl)-5-isopropylphenyl(methyl)carbamate], the concentration for half-maximal inhibition (IC50) in assay [1] was greater than 5 µM. Further, the Ki at memapsin 2 lay in the range of 0.301 to 0.5 µM.
In the case of `CNc1cc(CNC[C@@H](O)[C@H](Cc2ccccc2)NC(=O)c2cccc(C(=O)N(C)Cc3nc(C)cs3)c2)cc(C(C)C)c1` [Compound 133, N1-((2S,3R)-3-hydroxy-4-(3-isopropyl-5-(methylamino)benzylamino)-1-phenylbutan-2-yl)-N3-methyl-N3-((4-methylthiazol-2-yl)methyl)isophthalamide], the IC50 in assay [1] was less than 1 µM. Moreover, on memapsin 2, the Ki was less than 0.3 µM.
As to `COC(=O)c1cc(CNC[C@@H](O)[C@H](Cc2ccccc2)NC(=O)c2cccc(C(=O)N(C)Cc3nc(C)cs3)c2)cc(N(C)S(C)(=O)=O)c1` [Compound 134, methyl 3-(((2R,3S)-2-hydroxy-3-(3-(methyl((4-methylthiazol-2-yl)methyl)carbamoyl)benzamido)-4-phenylbutylamino)methyl)-5-(N-methylmethylsulfonamido)benzoate], the 50% inhibitory concentration (IC50) in assay [1] was 1 to 5 µM. Besides, the Ki at memapsin 2 was less than 0.3 µM.
For the compound `Cc1csc(CN(C)C(=O)c2cccc(C(=O)N[C@@H](Cc3ccccc3)[C@H](O)CNCc3cccc(C#N)c3)c2)n1` [Compound 137, N1-((2S,3R)-4-(3-cyanobenzylamino)-3-hydroxy-1-phenylbutan-2-yl)-N3-methyl-N3-((4-methylthiazol-2-yl)methyl)isophthalamide], the 50% inhibitory concentration (IC50) in assay [1] was less than 1 µM. The Ki at memapsin 2 was less than 0.3 µM.
For `Cc1csc(CN(C)C(=O)c2cccc(C(=O)N[C@@H](Cc3ccccc3)[C@H](O)CNCc3cc(C(=O)O)cc(N(C)S(C)(=O)=O)c3)c2)n1` [Compound 139, 3-(((2R,3S)-2-hydroxy-3-(3-(methyl((4-methylthiazol-2-yl)methyl)carbamoyl)benzamido)-4-phenylbutylamino)methyl)-5-(N-methylmethylsulfonamido)benzoic acid] the same measures were less than 1 µM and less than 0.3 µM.
For `COc1cccc(CNC[C@@H](O)[C@H](Cc2ccccc2)NC(=O)c2cc(C(=O)N(C)Cc3nc(C)cs3)cc(-c3ccccc3C#N)c2)c1` [Compound 140, 2′-cyano-N3-((2S,3R)-3-hydroxy-4-(3-methoxybenzylamino)-1-phenylbutan-2-yl)-N5-methyl-N5-((4-methylthiazol-2-yl)methyl)biphenyl-3,5-dicarboxamide], the half-inhibitory concentration (IC50) in assay [1] was less than 1 µM. For the same compound, the Ki on memapsin 2 is less than 0.3 µM.
Consider `COC(=O)c1cccc(CNC[C@@H](O)[C@H](Cc2ccccc2)NC(=O)c2cccc(C(=O)N(C)Cc3nc(C)cs3)c2)c1` [Compound 141, methyl 3-(((2R,3S)-2-hydroxy-3-(3-(methyl((4-methylthiazol-2-yl)methyl)carbamoyl)benzamido)-4-phenylbutylamino)methyl)benzoate], for which, in assay [1], the IC50 is less than 1 µM. Also, on memapsin 2, the Ki lay in the range of 0.301 to 0.5 µM.
Take `C[C@@H](NC(=O)c1cc(C(=O)N[C@@H](Cc2ccccc2)[C@H](O)CNCc2cccc(C(F)F)c2)cc(N(C)S(C)(=O)=O)c1)c1ccccc1` [Compound 142, N1-((2S,3R)-4-(3-(difluoromethyl)benzylamino)-3-hydroxy-1-phenylbutan-2-yl)-5-(N-methylmethylsulfonamido)-N3-((R)-1-phenylethyl)isophthalamide]: the 50% inhibitory concentration (IC50) in assay [1] was less than 1 µM. The Ki at memapsin 2 was less than 0.3 µM.
As to `Cc1csc(CN(C)C(=O)c2cccc(C(=O)N[C@@H](Cc3ccccc3)[C@H](O)CNCc3cccc(C(F)F)c3)c2)n1` [Compound 143, N1-((2S,3R)-4-(3-(difluoromethyl)benzylamino)-3-hydroxy-1-phenylbutan-2-yl)-N3-methyl-N3-((4-methylthiazol-2-yl)methyl)isophthalamide], the half-maximal inhibitory concentration (IC50) in assay [1] is less than 1 µM. Also, on memapsin 2, the Ki is less than 0.3 µM.
For `C[C@@H](NC(=O)c1cc(C(=O)N[C@@H](Cc2ccccc2)[C@H](O)CNCc2cccc(C(C)(F)F)c2)cc(N(C)S(C)(=O)=O)c1)c1ccccc1` [Compound 144, N1-((2S,3R)-4-(3-(1,1-difluoroethyl)benzylamino)-3-hydroxy-1-phenylbutan-2-yl)-5-(N-methylmethylsulfonamido)-N3-((R)-1-phenylethyl)isophthalamide] the same measures were less than 1 µM and less than 0.3 µM.
As for `Cc1csc(CN(C)C(=O)c2cccc(C(=O)N[C@@H](Cc3ccccc3)[C@H](O)CNCc3cccc(C(C)(F)F)c3)c2)n1` [Compound 145, N1-((2S,3R)-4-(3-(1,1-difluoroethyl)benzylamino)-3-hydroxy-1-phenylbutan-2-yl)-N3-methyl-N3-((4-methylthiazol-2-yl)methyl)isophthalamide], the IC50 in assay [1] is less than 1 µM. On memapsin 2, the Ki was less than 0.3 µM.
In the case of `Cc1csc(CN(C)C(=O)c2cccc(C(=O)N[C@@H](Cc3ccccc3)[C@H](O)CNCc3cc(C(C)C)cc(N(C)S(C)(=O)=O)c3)c2)n1` [Compound 146, N1-((2S,3R)-3-hydroxy-4-(3-isopropyl-5-(N-methylmethylsulfonamido)benzylamino)-1-phenylbutan-2-yl)-N3-methyl-N3-((4-methylthiazol-2-yl)methyl)isophthalamide], the IC50 in assay [1] is less than 1 µM. Also, the Ki at memapsin 2 is less than 0.3 µM.
The like results for `Cc1csc(CN(C)C(=O)c2cccc(C(=O)N[C@@H](Cc3ccccc3)[C@H](O)CNC(C)c3cncc(C(C)C)c3)c2)n1` (stereo partly drawn) [Compound 148, N1-((2S,3R)-3-hydroxy-4-(1-(5-isopropylpyridin-3-yl)ethylamino)-1-phenylbutan-2-yl)-N3-methyl-N3-((4-methylthiazol-2-yl)methyl)isophthalamide] were, in that order, less than 1 µM and less than 0.3 µM.
The like results for `C[C@@H](NC(=O)c1cc(C(=O)N[C@@H](Cc2ccccc2)[C@H](O)CNCc2cccc(C#N)c2)cc(N(C)S(C)(=O)=O)c1)c1ccccc1` [Compound 149, N1-((2S,3R)-4-(3-cyanobenzylamino)-3-hydroxy-1-phenylbutan-2-yl)-5-(N-methylmethylsulfonamido)-N3-((R)-1-phenylethyl)isophthalamide] were, in that order, less than 1 µM and less than 0.3 µM.
Consider `Cc1csc(CN(C)C(=O)c2cccc(C(=O)N[C@@H](Cc3ccccc3)[C@H](O)CNCc3cc(C(C)C)cc(S(C)(=O)=O)c3)c2)n1` [Compound 150, N1-((2S,3R)-3-hydroxy-4-(3-isopropyl-5-(methylsulfonyl)benzylamino)-1-phenylbutan-2-yl)-N3-methyl-N3-((4-methylthiazol-2-yl)methyl)isophthalamide], for which, in assay [1], the IC50 is less than 1 µM. In addition, the Ki on memapsin 2 is less than 0.3 µM.
For `Cc1csc(CN(C)C(=O)c2cc(C(=O)N[C@@H](Cc3ccccc3)[C@H](O)CNCc3cncc(C(C)C)c3)cc(-c3ccccc3C#N)c2)n1` [Compound 154, 2′-cyano-N3-((2S,3R)-3-hydroxy-4-((5-isopropylpyridin-3-yl)methylamino)-1-phenylbutan-2-yl)-N5-methyl-N5-((4-methylthiazol-2-yl)methyl)biphenyl-3,5-dicarboxamide] the same measures were less than 1 µM and less than 0.3 µM.
